81 compounds from US12642270B2, “Substituted thiophene carboxamides, thiophene carboxylic acids and derivatives thereof” (Bayer Aktiengesellschaft, priority 2019, dated 2026) can be followed below.

One data set is described as follows: Log P by HPLC on reversed phase columns (EEC directive 79/831 Annex V.A8). The class given is physicochemical. Conditions: LogP method [a]; compounds of formula (I), Table 1.1. Here is the method:
In the above tables, measurement of Log P values was performed according to EEC directive 79/831 Annex V.A8 by HPLC (High Performance Liquid Chromatography) on reversed phase columns with the following methods: • ^[a] Log P value is determined by measurement of LC-UV, in an acidic range, with 0.1% formic acid in water and acetonitrile as eluent (linear gradient from 10% acetonitrile to 95% acetonitrile). • ^[b] Log P value is determined by measurement of LC-UV, in a neutral range, with 0.001 molar ammonium acetate solution in water and acetonitrile as eluent (linear gradient from 10% acetonitrile to 95% acetonitrile). • ^[c] Log P value is determined by measurement of LC-UV, in an acidic range, with 0.1% phosphoric acid and acetonitrile as eluent (linear gradient from 10% acetonitrile to 95% acetonitrile). If more than one Log P value is available within the same method, all the values are given and separated by “+”. Calibration was done with straight-chain alkan2-ones (with 3 to 16 carbon atoms) with known Log P values (measurement of Log P values using retention times with linear interpolation between successive alkanones). Lambda-max-values were determined using UV-spectra from 200 nm to 400 nm and the peak values of the chromatographic signals.
In the case of `CCOC(=O)CN(O)C(=O)c1sc(Cl)c(Cl)c1Br` [1.0491], the LogP was 2.95^[a].

Take `CCOC(=O)C(NC(=O)c1cc(Br)c(Cl)s1)C(C)C` (stereo not drawn) [1.0437]: the LogP is 3.87^[a].

On to `O=C(O)CNC(=S)c1sc(Cl)c(Br)c1Cl` [1.0500], for which the LogP is 3.10^[a].

Take `O=C(NC1(C(=O)O)CCC1)c1sc(Cl)c(Br)c1Cl` [1.0486]: the LogP is 2.95^[a].

With `O=C(O)CNC(=O)CNC(=O)c1cc(I)c(I)s1` [1.0474], the LogP is 1.63^[a].

For `COC(=O)C1(NC(=O)c2sc(Cl)c(Br)c2Br)CC1` [1.0483], the LogP was 3.08^[a].

`CCOC(=O)CNC(=O)c1cc(Br)c(Cl)s1` [1.0457]: the LogP was 2.63^[a].

As to `O=C(NC1(C(=O)NC2(C(=O)O)CC2)CC1)c1cc(I)c(I)s1` [1.0478], the LogP is 1.53^[a].

For `CCOC(=O)C(CCSC)NC(=O)c1sc(Br)c(Cl)c1F` (stereo not drawn) [1.0432], the LogP is 3.96^[a].

As to `CCOC(=O)C1(NC(=O)c2sc(C)c(Br)c2F)CC1` [1.0463], the LogP was 2.80^[a].

The same data set, now with this note: method [a].
For `COC(=O)C(Cc1c[nH]cn1)NC(=O)c1sc(Br)c(Br)c1F` (stereo not drawn) [1.0134], the LogP is 1.39^[a].

Turning to `O=C(CNC(=O)c1sc(Br)c(Br)c1Cl)OC1CCOCC1` [1.0883], the LogP was 3.14^[a].

Regarding `COC(=O)C1(NC(=O)c2sc(C#N)c(Cl)c2Cl)CCC1` [1.0578], the LogP was 2.94^[a].

With `CNC(=O)C1(NC(=O)c2sc(Br)c(Br)c2Cl)CC1` [1.0920], the LogP is 2.31^[a].

With `CCOC(=O)C(NC(=O)c1sc(Br)c(Cl)c1Cl)C(C)C` (stereo not drawn) [1.0200], the LogP is 4.89^[a].

Regarding `COC(=O)C(C)(C)NC(=O)c1sc(Br)c(Br)c1F` [1.0540], the LogP was 3.34^[a].

Regarding `CCOC(=O)C(CO)NC(=O)c1sc(C#N)c(Br)c1C` (stereo not drawn) [1.0834], the LogP was 2.16^[a].

As to `CC(C)(C)OC(=O)C1(NC(=O)c2sc(Br)c(Br)c2F)CC(F)(F)C1` [1.0623], the LogP was 4.46^[a].

With `O=C(NC1(C(=O)OCc2ccccc2)CCC1)c1sc(Cl)c(Cl)c1Br` [1.0888], the LogP is 5.00^[a].

Turning to `O=C(O)C(Cc1ccccc1)NC(=S)c1sc(Br)c(Br)c1F` (stereo not drawn) [1.0876], the LogP is 4.17^[a].

In the case of `O=C(O)CNC(=O)c1cc(Cl)c(Br)s1` [1.0247], the LogP is 1.79^[a].

Consider `COC(=O)C(NC(=O)c1cc(Br)c(Cl)s1)C1CC1` (stereo not drawn) [1.0260], for which the LogP was 3.07^[a].

On to `COC(=O)C1(NC(=O)c2sc(Br)c(Br)c2C#N)CC1` [1.0800], for which the LogP was 2.40^[a].

For `CCOC(=O)C(CO)NC(=O)c1sc(Br)c(Br)c1C#N` (stereo not drawn) [1.0803], the LogP is 2.29^[a].

As for `CCOC(=O)C(CCSC)NC(=O)c1sc(C#N)c(Br)c1C` (stereo not drawn) [1.0242], the LogP is 3.34^[a].

On to `CCOC(=O)C(CO)NC(=O)c1sc(Br)c(Cl)c1Br` (stereo not drawn) [1.0847], for which the LogP is 2.89^[a].

For the compound `N#CCNC(=O)c1sc(Br)c(Br)c1F` [1.0205], the LogP is 2.41^[a].

As for `CCOC(=O)CNC(=O)c1sc(C)c(Cl)c1Cl` [1.0848], the LogP is 2.82^[a].

In the case of `O=C(O)C1(NC(=S)c2sc(Br)c(Br)c2I)CC1` [1.0173], the LogP is 3.09^[a].

The same data set, now with this note: method [a]: LC-UV, acidic range, 0.1% formic acid in water and acetonitrile.
For the compound `COC(=O)c1sc(Br)c(Cl)c1Br` [II.071], the LogP was 4.01^[a].

Consider `CCOC(=O)c1sc(C)c(Cl)c1Cl` [II.063], for which the LogP was 4.03^[a].

As to `N#Cc1cc(C(=O)O)sc1Cl` [II.041], the LogP was 1.44^[a].

For the compound `N#CC1(NC(=O)c2sc(Br)c(Br)c2F)CCC(c2ccccc2)CC1` (stereo not drawn) [I.1009], the LogP is 4.78^[a].

For `CC[C@H](C)[C@H](NC(=O)c1sc(Br)c(Br)c1F)C(=O)OC` [I.0141], the LogP was 4.37^[a].

Regarding `N#CC1(NC(=O)c2sc(Br)c(Br)c2Cl)CCC(c2ccccc2)CC1` (stereo not drawn) [I.0870], the LogP was 4.97^[a].

As to `O=C(NC1CCNC1=O)c1cc(Cl)c(Br)s1` (stereo not drawn) [I.0218], the LogP is 1.71^[a].

With `CC(C)COC(=O)c1sc(Cl)c(Br)c1F` [II.060], the LogP is 5.28^[a].

Turning to `Cc1c(C(=O)O)sc(Br)c1Cl` [II.015], the LogP is 2.75^[a].

Take `N#Cc1sc(C(=O)O)c(Cl)c1Cl` [II.088]: the LogP is 1.51^[a].

Regarding `N#Cc1cc(C(=O)O)sc1Br` [II.100], the LogP is 1.48^[a].

As for `N#Cc1sc(C(=O)O)c(Br)c1Cl` [II.097], the LogP was 1.64^[a].

Consider `O=C(O)c1cc(Cl)c(Br)s1` [II.040], for which the LogP was 2.23^[a].

Consider `O=C(N[C@H]1CCSC1=O)c1sc(Br)c(Br)c1F` [I.0017], for which the LogP is 2.89^[a].

The data set is the same for the next values; noted with them: method [a]; compounds of formula (I), Table 1.1.
On to `CCOC(=O)C(Cc1ccccc1)NC(=O)c1cc(F)c(Br)s1` (racemic) [1.0030], for which the LogP was 3.69^[a].

On to `CCOC(=O)C1(NC(=O)c2sc(Cl)c(Br)c2C)CCOCC1` [1.0018], for which the LogP was 3.15^[a].

Regarding `CCOC(=O)CCNC(=O)c1sc(I)c(Br)c1C` [1.0097], the LogP is 3.17^[a].

As for `N#CC(Cc1ccccc1)NC(=O)c1sc(Br)c(Br)c1F` (stereo not drawn) [1.0118], the LogP is 3.81^[a].

With `CCOC(=O)C(CC(F)(F)F)NC(=O)c1sc(Cl)c(Br)c1C` (stereo not drawn) [1.0038], the LogP was 3.99^[a].

On to `CCOC(=O)CNC(=O)c1cc(Br)c(C#N)s1` [1.0052], for which the LogP is 2.16^[a].

Regarding `COC(=O)C(NC(=O)c1sc(Br)c(Br)c1F)C1CC1` (stereo not drawn) [1.0121], the LogP is 3.43^[a].

As to `Cc1c(C(=O)NC2(C#N)CC2)sc(Br)c1Cl` [1.0112], the LogP was 2.75^[a].

Take `CCOC(=O)CNC(=O)c1sc(C)c(Br)c1F` [1.0001]: the LogP is 2.69^[a].

For `CCOC(=O)C(NC(=O)c1sc(C#N)c(Br)c1C)C(C)C` (racemic) [1.0027], the LogP is 3.52^[a].

Staying with this data set, now noted: method marked [a].
`N#CCNC(=O)c1sc(Cl)c(Cl)c1F` [1.0342]: the LogP is 2.30^[a].

For `CCOC(=O)CNC(=O)c1sc(Cl)c(C#N)c1Cl` [1.0393], the LogP is 2.54^[a].

On to `Cc1c(C(=O)NC2(C(=O)OC3CCC3)CCC2)sc(Cl)c1Br` [1.0725], for which the LogP is 4.37^[a].

For the compound `COC(=O)C1(NC(=O)c2sc(Cl)c(C#N)c2Br)CCC1` [1.0661], the LogP was 2.87^[a].

As for `CCOC(=O)C(Cc1ccccc1)NC(=O)c1sc(Cl)c(Cl)c1F` (stereo not drawn) [1.0352], the LogP is 4.47^[a].

In the case of `COC(=O)C(CCSC)NC(=O)c1sc(Br)c(Cl)c1C` (stereo not drawn) [1.0759], the LogP was 3.64^[a].

Turning to `COC(=O)C1(NC(=O)c2cc(Br)c(C#N)s2)CC1` [1.0281], the LogP was 2.10^[a].

For `COC(=O)CNC(=O)c1cc(Br)c(C(F)(F)F)s1` [1.0716], the LogP is 2.65^[a].

Regarding `CCOC(=O)C1(NC(=O)c2sc(Br)c(Cl)c2Br)CC1` [1.0782], the LogP is 3.56^[a].

As for `CCOC(=O)CNC(=O)c1sc(F)c(Br)c1Br` [1.0697], the LogP is 3.01^[a].

As for `CCOC(=O)C(Cc1ccccc1)NC(=O)c1cc(Br)c(C(F)(F)F)s1` (stereo not drawn) [1.0721], the LogP is 4.36^[a].

In the case of `COC(=O)C(CC(F)F)NC(=O)c1sc(Br)c(Br)c1C(F)F` (stereo not drawn) [1.0361], the LogP is 3.28^[a].

As to `CCOC(=O)C1(NC(=O)c2cc(F)c(Cl)s2)CC1` [1.0308], the LogP is 2.49^[a].

Consider `CCOC(=O)C(NC(=O)c1sc(Br)c(C#N)c1Cl)C(C)C` (stereo not drawn) [1.0694], for which the LogP was 3.83^[a].

Regarding `CCOC(=O)C1(NC(=O)c2sc(C#N)c(Br)c2Br)CC1` [1.0740], the LogP is 3.02^[a].

In the case of `COC(=O)CNC(=O)c1cc(F)c(Cl)s1` [1.0307], the LogP is 1.94^[a].

For `COC(=O)C1(NC(=O)c2sc(F)c(Br)c2Br)CCC1` [1.0712], the LogP was 3.41^[a].

Turning to `CCOC(=O)C(NC(=O)c1sc(C#N)c(Cl)c1C)C(C)C` (stereo not drawn) [1.0304], the LogP was 3.47^[a].

As for `C#CCOC(=O)C1(NC(=O)c2sc(C#N)c(Cl)c2Cl)CC1` [1.0784], the LogP was 2.73^[a].

On to `CCOC(=O)C(NC(=O)c1cc(Br)c(C(F)(F)F)s1)C(C)C` (stereo not drawn) [1.0719], for which the LogP is 4.18^[a].

The data set is the same for the next values; noted with them: method marker [a] given with each value; Table 1.1, compounds of formula (I).
As to `COC(=O)C(NC(=O)c1sc(Cl)c(Cl)c1Br)c1cccs1` (racemic) [1.0947], the LogP was 4.26^[a].

`O=C(CNC(=O)c1sc(Br)c(Br)c1Cl)SCc1ccccc1` [1.0997]: the LogP is 4.62^[a].

Turning to `C=CCOC(=O)C1(NC(=O)c2sc(C#N)c(Br)c2C)CC1` [1.0962], the LogP was 2.81^[a].

For `O=C(CNC(=O)c1sc(Br)c(Br)c1F)OC1CCOCC1` [1.1018], the LogP was 2.80^[a].

As to `CCOC(=O)C1(NC(=O)c2sc(Br)c(Br)c2C#N)CSC1` [1.1051], the LogP was 3.15^[a].

Regarding `CCCOC(=O)CNC(=O)c1sc(C#N)c(Br)c1C` [1.0995], the LogP was 2.81^[a].

As for `CCCOC(=O)C1(NC(=O)c2sc(C#N)c(Br)c2C)CC1` [1.0966], the LogP was 2.98^[a].

Still in this data set, the particulars now being: reversed phase HPLC columns, value in preparation example, method not marked.
In general, chromatographic logP refers to a lipophilicity value derived from retention on a column. A higher chromatographic logP goes with higher lipophilicity. The compound `NC(=S)CNC(=O)c1sc(Br)c(Br)c1F` [I.0896, N-(2-amino-2-sulfanylideneethyl)-4,5-dibromo-3-fluorothiophene-2-carboxamide] returned a chromatographic logP of 2.25.
